Assay results as given in patent US20170202840A1, “TREATMENT OF PANCREATIC CANCER WITH LIPOSOMAL IRINOTECAN” (MERRIMACK PHARMACEUTICALS, INC., priority 2016, published 2017).
Structures can show the parent of a compound that is named as a salt. Where two headings read alike, the source gives them in different places.

Key:
[1] = tested on: cytochrome P-450 isozymes; conditions: in vitro; cited from earlier work
[2] = dog, in vivo
[3] = in vivo
Text: Serum bilirubin within the institutional normal range, albumin≧3 g/dL, and Karnofsky Performance Status (KPS)≧70 were required for study entry.
TEAEs were graded by NCI CTCAE v4.0 and coded by MedDRA v14.1 for the following prespecified subgroups: sex, age (<65 vs ≧65 years), ethnicity (white vs Asian), UGT1A1*28 status, prior conventional irinotecan therapy (yes vs no), and prior 5-FU therapy (yes vs no). All TEAEs were followed until resolution or patient discontinuation. Analyses were performed on the safety population (ie, those who received≧1 dose of study medication).
All TEAEs were followed until resolution or patient discontinuation. The safety analysis population included all patients who received≧1 dose of study drug. The presence of the UGT1A1*28 allele was determined by genotype testing, and homozygous patients were identified (A7/TA7 genotype)

[4] = intravenous; cited from earlier work
[5] = mouse; cited from earlier work
[6] = rats, cited from earlier work
[7] = human, in vivo; cited from earlier work
[8] = rat, in vivo; cited from earlier work
[9] = intravenous; cited from earlier work; remark: listed apart in the source
[10] = rabbits, 6 mg/kg/day; cited from earlier work
[11] = cited from earlier work

Question: Which “Inhibition of cytochrome P-450 isozymes” value [1] does the source give for CCc1c2c(nc3ccc(O)cc13)-c1cc3c(c(=O)n1C2)COC(=O)[C@]3(O)CC [SN-38] here?
Answer: Its value is “do not inhibit cytochrome P-450 isozymes”.

Question: For “irinotecan sucrose octasulfate salt liposome injection [MM-398]”, which “Doses with atrophy of male and female reproductive organs” value [2] is on record?
Answer: The value was no less than 13 mg/kg.

Question: What about the “Incidence of neutropenic sepsis” value [3] of the same compound?
Answer: The value was 0.8%.

Question: For CCc1c2c(nc3ccc(OC(=O)N4CCC(N5CCCCC5)CC4)cc13)-c1cc3c(c(=O)n1C2)COC(=O)[C@]3(O)CC [irinotecan HCl, (5) 4,11-diethyl-3,4,12,14-tetrahydro-4-hydroxy-3,14-dioxo1H-pyrano[3′,4′:6,7]-indolizino[1,2 b]quinolin-9-yl-[1,4′bipiperidine]-1′-carboxylate, monohydrochloride, trihydrate], which “Doses without significant adverse effects on fertility and general reproductive performance” value [4] is on record?
Answer: Its value is “up to 6 mg/kg/day”.

Question: And the Clastogenicity in vivo [5]?
Answer: The Clastogenicity in vivo was “clastogenic”.

Question: What about the “Effects in offspring, dams dosed after organogenesis through weaning” value ([6]; 6 mg/kg/day) of the same compound?
Answer: Its value is “decreased learning ability and decreased female body weights in the offspring”.

Question: What about the “Doses giving structural abnormalities and growth delays” value [6] of the same compound?
Answer: Its value is “greater than 1.2 mg/kg/day”.

Question: What about the “Effect of dexamethasone (moderate CYP3A4 inducer) on pharmacokinetics of irinotecan” value [7] of the same compound?
Answer: The value was “does not alter the pharmacokinetics of irinotecan”.

Question: And the “Exposure to irinotecan and SN-38 with concomitant ketoconazole” value [7]?
Answer: Its value is “increased exposure”.

Question: What about the “Exposure to irinotecan or SN-38 with CYP3A4 enzyme-inducing anticonvulsants or St. John's wort” value [7] of the same compound?
Answer: Its value is “substantially reduced”.

Question: What about the “Urinary excretion of SN-38” value [7] of the same compound?
Answer: Its value is less than 1%.

Question: What about the “Urinary excretion of SN-38 glucuronide” value [7] of the same compound?
Answer: Its value is 3%.

Question: What about the Carcinogenicity finding [8] of the same compound?
Answer: Its Carcinogenicity finding is “significant linear trend between irinotecan HCl dosage and the incidence of combined uterine horn endometrial stromal polyps and endometrial stromal sarcomas”.

Question: What about the “Time to appearance of radioactivity in milk” value [9] of the same compound?
Answer: Its value is no more than 5 min.

Question: With CCc1c2c(nc3ccc(OC(=O)N4CCC(N5CCCCC5)CC4)cc13)-c1cc3c(c(=O)n1C2)COC(=O)[C@]3(O)CC [irinotecan, (5) 4,11-diethyl-3,4,12,14-tetrahydro-4-hydroxy-3,14-dioxo1H-pyrano[3′,4′: 6,7]-indolizino[1,2b]quinolin-9-yl-[1,4′bipiperidine]-1′-carboxylate] as the compound, how does the “Inhibition of cytochrome P-450 isozymes” value [1] read?
Answer: The value was “do not inhibit cytochrome P-450 isozymes”.

Question: And the “Embryo-fetal effects, intravenous during organogenesis” value [10]?
Answer: Its value is “increased post-implantation loss and decreased numbers of live fetuses”.

Question: What about the “Incidence of grade 4 neutropenia” value ([11]; 350 mg/m2 once every-3-weeks, homozygous UGT1A1*28) of the same compound?
Answer: The value was no more than 50%.

Question: What about the “Incidence of grade 4 neutropenia” value ([11]; heterozygous (UGT1A1 6/7 genotype)) of the same compound?
Answer: Its value is 12.5%.

Question: And the “Incidence of grade 4 neutropenia” value ([11]; homozygous wild-type (UGT1A1 6/6 genotype))?
Answer: The value was “no grade 4 neutropenia was observed”.

Question: What about the “Embryo-fetal effects, intravenous during organogenesis” value ([6]; 6 mg/kg/day) of the same compound?
Answer: The value was “increased post-implantation loss and decreased numbers of live fetuses”.

Question: And the Placental transfer ([6]; intravenous)?
Answer: Its Placental transfer is “crosses the placenta”.
